Experimental findings from the NIST ThermoML archive (doi:10.1021/je700186v) are described below.

The conditions of this data set: Crystal; visual observation.

Molecules are shown by their SMILES. ± gives the expanded uncertainty stated by the source.

Regarding `C1CN2CCN1CC2` [1,4-diazabicyclo[2.2.2]octane], the Normal melting temperature is 159.30 ± 1.1 °C.
